In the CheMixHub viscosity set:
± gives the uncertainty stated by the source.

Assay: xn = mol fraction of the nth substance listed

C1CCCCC1 + CCCCO
Settings	viscosity [mPa·s]
298.15 K, 101 kPa, x1 = 0.1014	2.225 ± 0.015
298.15 K, 101 kPa, x1 = 0.1996	1.945 ± 0.014
298.15 K, 101 kPa, x1 = 0.2962	1.699 ± 0.014
298.15 K, 101 kPa, x1 = 0.4016	1.468 ± 0.013
298.15 K, 101 kPa, x1 = 0.5032	1.274 ± 0.012
298.15 K, 101 kPa, x1 = 0.597	1.123 ± 0.012
298.15 K, 101 kPa, x1 = 0.6908	1.02 ± 0.012
298.15 K, 101 kPa, x1 = 0.7923	0.9371 ± 0.011
298.15 K, 101 kPa, x1 = 0.8856	0.8954 ± 0.011
298.15 K, 101 kPa, x2 = 0.0216	0.876 ± 0.008
298.15 K, 101 kPa, x2 = 0.1208	0.903 ± 0.009
298.15 K, 101 kPa, x2 = 0.155	0.921 ± 0.009
298.15 K, 101 kPa, x2 = 0.1796	0.931 ± 0.009
298.15 K, 101 kPa, x2 = 0.3673	1.09 ± 0.01
298.15 K, 101 kPa, x2 = 0.532	1.357 ± 0.013
298.15 K, 101 kPa, x2 = 0.7128	1.752 ± 0.016
298.15 K, 101 kPa, x2 = 0.8385	2.07 ± 0.019
303.15 K, 101 kPa, x2 = 0.6491	1.196 ± 0.12
303.15 K, 101.33 kPa, x2 = 0.2111	0.9317 ± 0.012
303.15 K, 101.33 kPa, x2 = 0.298	0.9971 ± 0.012
303.15 K, 101.33 kPa, x2 = 0.4038	1.095 ± 0.013
303.15 K, 101.33 kPa, x2 = 0.489	1.187 ± 0.015
303.15 K, 101.33 kPa, x2 = 0.8096	1.719 ± 0.02
303.15 K, 101.33 kPa, x2 = 0.8981	1.941 ± 0.023
308.15 K, 101 kPa, x2 = 0.0216	0.745 ± 0.007
308.15 K, 101 kPa, x2 = 0.0714	0.754 ± 0.007
308.15 K, 101 kPa, x2 = 0.1208	0.765 ± 0.008
308.15 K, 101 kPa, x2 = 0.155	0.779 ± 0.008
308.15 K, 101 kPa, x2 = 0.1796	0.787 ± 0.008
308.15 K, 101 kPa, x2 = 0.3673	0.898 ± 0.009
308.15 K, 101 kPa, x2 = 0.532	1.089 ± 0.01
308.15 K, 101 kPa, x2 = 0.6491	1.083 ± 0.11
308.15 K, 101 kPa, x2 = 0.7128	1.387 ± 0.013
308.15 K, 101 kPa, x2 = 0.8385	1.627 ± 0.015
313.15 K, 101 kPa, x1 = 0.1014	1.547 ± 0.013
313.15 K, 101 kPa, x1 = 0.1996	1.363 ± 0.013
313.15 K, 101 kPa, x1 = 0.2962	1.203 ± 0.012
313.15 K, 101 kPa, x1 = 0.4016	1.054 ± 0.012
313.15 K, 101 kPa, x1 = 0.5032	0.934 ± 0.011
313.15 K, 101 kPa, x1 = 0.597	0.8408 ± 0.011
313.15 K, 101 kPa, x1 = 0.6908	0.7773 ± 0.011
313.15 K, 101 kPa, x1 = 0.7923	0.7265 ± 0.011
313.15 K, 101 kPa, x1 = 0.8856	0.6993 ± 0.011
313.15 K, 101 kPa, x2 = 0.6491	0.9869 ± 0.1
318.15 K, 101 kPa, x2 = 0.0216	0.643 ± 0.006
318.15 K, 101 kPa, x2 = 0.0714	0.645 ± 0.006
318.15 K, 101 kPa, x2 = 0.1208	0.652 ± 0.007
318.15 K, 101 kPa, x2 = 0.155	0.664 ± 0.007
318.15 K, 101 kPa, x2 = 0.1796	0.672 ± 0.007
318.15 K, 101 kPa, x2 = 0.3673	0.754 ± 0.007
318.15 K, 101 kPa, x2 = 0.532	0.895 ± 0.009
318.15 K, 101 kPa, x2 = 0.7128	1.114 ± 0.011
318.15 K, 101 kPa, x2 = 0.8385	1.298 ± 0.012

CCC(C)=O + CCCCO
viscosity [mPa·s]
Settings	298.15 K	308.15 K	318.15 K
100 kPa, x1 = 0.0997	–	1.465 ± 0.011	–
100 kPa, x1 = 0.1999	–	1.115 ± 0.0096	–
101.3 kPa, x2 = 0.0987	0.428 ± 0.004	0.385 ± 0.004	0.349 ± 0.004
101.3 kPa, x2 = 0.1988	0.476 ± 0.005	0.425 ± 0.004	0.382 ± 0.004
101.3 kPa, x2 = 0.3004	0.538 ± 0.005	0.476 ± 0.005	0.425 ± 0.004
101.3 kPa, x2 = 0.3991	0.616 ± 0.006	0.54 ± 0.005	0.478 ± 0.005
101.3 kPa, x2 = 0.4973	0.722 ± 0.007	0.626 ± 0.006	0.547 ± 0.005
101.3 kPa, x2 = 0.5972	0.861 ± 0.008	0.737 ± 0.007	0.636 ± 0.006
101.3 kPa, x2 = 0.6979	1.06 ± 0.009	0.891 ± 0.008	–
101.3 kPa, x2 = 0.7995	1.361 ± 0.012	1.121 ± 0.01	0.931 ± 0.008
101.3 kPa, x2 = 0.9028	–	1.458 ± 0.013	1.188 ± 0.011

COC(C)=O + CCCCO
298.15 K, 101.33 kPa
Settings	viscosity [mPa·s]
x1 = 0.0786	1.953 ± 0.064
x1 = 0.144	1.566 ± 0.052
x1 = 0.2105	1.28 ± 0.043
x1 = 0.2986	1.019 ± 0.035
x1 = 0.4151	0.791 ± 0.028
x1 = 0.4971	0.677 ± 0.024
x1 = 0.5919	0.576 ± 0.021
x1 = 0.6406	0.534 ± 0.02
x1 = 0.7116	0.484 ± 0.018
x1 = 0.7972	0.44 ± 0.017
x1 = 0.9034	0.402 ± 0.016

COc1ccccc1N + CCCCO
viscosity [mPa·s], 101 kPa
Settings	x1 = 0.1085	x1 = 0.1811	x1 = 0.2605	x1 = 0.3474	x1 = 0.4771	x1 = 0.5867	x1 = 0.6665	x1 = 0.7526	x1 = 0.8949
303.15 K	2.547 ± 0.059	2.719 ± 0.062	2.91 ± 0.067	3.123 ± 0.071	3.448 ± 0.078	3.729 ± 0.084	3.943 ± 0.088	4.18 ± 0.093	4.597 ± 0.1
308.15 K	2.267 ± 0.053	2.431 ± 0.056	2.611 ± 0.06	2.813 ± 0.064	3.12 ± 0.071	3.388 ± 0.077	3.59 ± 0.081	3.815 ± 0.086	4.205 ± 0.094
313.15 K	2.036 ± 0.048	2.194 ± 0.051	2.365 ± 0.055	2.554 ± 0.059	2.846 ± 0.065	3.103 ± 0.07	3.297 ± 0.074	3.516 ± 0.079	3.895 ± 0.087
318.15 K	1.83 ± 0.043	1.981 ± 0.047	2.143 ± 0.05	2.322 ± 0.054	2.598 ± 0.06	2.847 ± 0.065	3.036 ± 0.069	3.247 ± 0.073	3.609 ± 0.081

COc1ccccc1N + CCCCOCCO
303.15 K, 101 kPa
Settings	viscosity [mPa·s]
x1 = 0.115	3.21 ± 0.058
x1 = 0.2262	3.538 ± 0.064
x1 = 0.3338	3.847 ± 0.07
x1 = 0.438	4.116 ± 0.075
x1 = 0.539	4.334 ± 0.079
x1 = 0.6369	4.494 ± 0.082
x1 = 0.7318	4.629 ± 0.084
x1 = 0.8238	4.741 ± 0.086
x1 = 0.9132	4.839 ± 0.088

CCC(C)=O + CCCCn1cc[n+](C)c1.F[B-](F)(F)F
298.15 K, 101.33 kPa
Settings	viscosity [mPa·s]
x2 = 0.7996	42.25 ± 2.9
x2 = 0.8995	67.85 ± 6

C1CCCCC1 + CCCO
Settings	viscosity [mPa·s]
298.15 K, 100 kPa, x2 = 0.0547	0.8988 ± 0.11
298.15 K, 100 kPa, x2 = 0.1077	0.9091 ± 0.11
298.15 K, 100 kPa, x2 = 0.1968	0.9202 ± 0.11
298.15 K, 100 kPa, x2 = 0.3164	0.9358 ± 0.11
298.15 K, 100 kPa, x2 = 0.4278	1.013 ± 0.12
298.15 K, 100 kPa, x2 = 0.6293	1.243 ± 0.15
298.15 K, 100 kPa, x2 = 0.8064	1.502 ± 0.18
298.15 K, 100 kPa, x2 = 0.8873	1.626 ± 0.2
298.15 K, 101 kPa, x2 = 0.0166	0.873 ± 0.008
298.15 K, 101 kPa, x2 = 0.0647	0.865 ± 0.008
298.15 K, 101 kPa, x2 = 0.1219	0.867 ± 0.008
298.15 K, 101 kPa, x2 = 0.2231	0.889 ± 0.009
298.15 K, 101 kPa, x2 = 0.3207	0.946 ± 0.009
298.15 K, 101 kPa, x2 = 0.3805	0.994 ± 0.01
298.15 K, 101 kPa, x2 = 0.7039	1.371 ± 0.013
298.15 K, 101 kPa, x2 = 0.8023	1.529 ± 0.014
303.15 K, 101 kPa, x2 = 0.6491	1.1 ± 0.11
303.15 K, 101.33 kPa, x2 = 0.109	0.8411 ± 0.011
303.15 K, 101.33 kPa, x2 = 0.208	0.8728 ± 0.011
303.15 K, 101.33 kPa, x2 = 0.3385	0.9327 ± 0.012
303.15 K, 101.33 kPa, x2 = 0.4215	0.9852 ± 0.012
303.15 K, 101.33 kPa, x2 = 0.6115	1.141 ± 0.014
303.15 K, 101.33 kPa, x2 = 0.708	1.237 ± 0.015
303.15 K, 101.33 kPa, x2 = 0.8094	1.37 ± 0.017
308.15 K, 100 kPa, x2 = 0.0547	0.718 ± 0.086
308.15 K, 100 kPa, x2 = 0.1077	0.7248 ± 0.087
308.15 K, 100 kPa, x2 = 0.1968	0.7355 ± 0.088
308.15 K, 100 kPa, x2 = 0.3164	0.7941 ± 0.096
308.15 K, 100 kPa, x2 = 0.4278	0.8335 ± 0.1
308.15 K, 100 kPa, x2 = 0.5319	0.8971 ± 0.11
308.15 K, 100 kPa, x2 = 0.6293	0.9922 ± 0.12
308.15 K, 100 kPa, x2 = 0.7206	1.095 ± 0.13
308.15 K, 100 kPa, x2 = 0.8064	1.203 ± 0.14
308.15 K, 100 kPa, x2 = 0.8873	1.317 ± 0.16
308.15 K, 100 kPa, x2 = 0.9635	1.491 ± 0.18
308.15 K, 101 kPa, x2 = 0.0166	0.736 ± 0.007
308.15 K, 101 kPa, x2 = 0.0647	0.73 ± 0.007
308.15 K, 101 kPa, x2 = 0.1219	0.732 ± 0.007
308.15 K, 101 kPa, x2 = 0.2231	0.746 ± 0.007
308.15 K, 101 kPa, x2 = 0.3207	0.782 ± 0.008
308.15 K, 101 kPa, x2 = 0.3805	0.818 ± 0.008
308.15 K, 101 kPa, x2 = 0.4203	0.845 ± 0.008
308.15 K, 101 kPa, x2 = 0.6491	1.022 ± 0.11
308.15 K, 101 kPa, x2 = 0.7039	1.099 ± 0.011
308.15 K, 101 kPa, x2 = 0.8023	1.218 ± 0.012
313.15 K, 101 kPa, x2 = 0.6491	0.9392 ± 0.097
318.15 K, 101 kPa, x2 = 0.0166	0.634 ± 0.006
318.15 K, 101 kPa, x2 = 0.0647	0.626 ± 0.006
318.15 K, 101 kPa, x2 = 0.1219	0.624 ± 0.006
318.15 K, 101 kPa, x2 = 0.2231	0.634 ± 0.006
318.15 K, 101 kPa, x2 = 0.3207	0.66 ± 0.007
318.15 K, 101 kPa, x2 = 0.3805	0.683 ± 0.007
318.15 K, 101 kPa, x2 = 0.4203	0.706 ± 0.007
318.15 K, 101 kPa, x2 = 0.7039	0.896 ± 0.009
318.15 K, 101 kPa, x2 = 0.8023	0.992 ± 0.01
